Measured values taken from patent US12691092B2, “Method for reducing cutaneous skin scarring by pre-emptive priming and compounds and compositions for its implementation” (SOS SCIENCE OF SKIN LTD, priority 2020, dated 2026).

Columns and labels:
[1] = test system: HBB, HBA1, HBA2; test: mRNA sequencing of scar biopsies; type: in vivo, human; details: group-1, week 4
Description: (§1) A double-blind randomized placebo-controlled trial was conducted using a temporal punch-biopsy model. The punch biopsy and topical application methodology used in the study is illustrated in FIG. 1, namely showing pre-injury pre-emptive priming (7-days), pre-injury pre-emptive priming (3-days), day of injury (immediate application on day 0), post-injury (delayed 2 weeks post injury) including biopsy time points and time of topical applications. Each group applied both placebo and topical formulations twice daily for the duration of the study until week 8, with only the starting time point differing between groups Participants were split into 4 groups (n=10 in each group) in order to compare different modes (timings) of commencement of the topical application: • Group-1: Pre-emptive Priming (7-days): pre-injury • Group-2: Pre-emptive Priming (3-days): pre-injury • Group-3: Immediate (0-day): day-of-injury • Group-4: Delayed (14-days): post-injury Clinical quantitative devices were used to objectively monitor cutaneous healing at weekly intervals and punch biopsies were performed on day 0 (uninjured skin) and at weeks 4 and 8 for protein and gene expression analyses. […] Excisional skin biopsies in upper arms were evaluated weekly with multiple quantitative devices over an 8-week period. […]

[2] = test system: CD31; test: CD31 angiogenic immunohistochemical marker in scar biopsies; type: in vivo, human
Description: A double-blind randomized placebo-controlled trial was conducted using a temporal punch-biopsy model. The punch biopsy and topical application methodology used in the study is illustrated in FIG. 1, namely showing pre-injury pre-emptive priming (7-days), pre-injury pre-emptive priming (3-days), day of injury (immediate application on day 0), post-injury (delayed 2 weeks post injury) including biopsy time points and time of topical applications. Each group applied both placebo and topical formulations twice daily for the duration of the study until week 8, with only the starting time point differing between groups Participants were split into 4 groups (n=10 in each group) in order to compare different modes (timings) of commencement of the topical application: • Group-1: Pre-emptive Priming (7-days): pre-injury • Group-2: Pre-emptive Priming (3-days): pre-injury • Group-3: Immediate (0-day): day-of-injury • Group-4: Delayed (14-days): post-injury Clinical quantitative devices were used to objectively monitor cutaneous healing at weekly intervals and punch biopsies were performed on day 0 (uninjured skin) and at weeks 4 and 8 for protein and gene expression analyses. In the trial, topical EGCG and a placebo topical were applied twice daily for the duration of the trial until week 8 with only the starting time points differing between groups. Clinical and experimental analysis involved use of non-invasive devices as well as protein and gene studies. Excisional skin biopsies in upper arms were evaluated weekly with multiple quantitative devices over an 8-week period. […] In order to further support these findings and the clinical findings, two well-known and established angiogenic immunohistochemical markers; CD31 and VEGF-A were used. […] There was a significant difference between groups (p=0.02) at week-4.

[3] = test system: zone of injury; details: topical EGCG, zonal priming; cited from earlier work
[4] = test system: CD31; test: QRT-PCR for CD31; type: in vivo, human; details: week 4, all groups
Description: as §1

[5] = test system: human skin scarring model; test: Blood flow by full-field laser perfusion imaging (FLPI); type: in vivo
Description: A double-blind randomized placebo-controlled trial was conducted using a temporal punch-biopsy model. The punch biopsy and topical application methodology used in the study is illustrated in FIG. 1, namely showing pre-injury pre-emptive priming (7-days), pre-injury pre-emptive priming (3-days), day of injury (immediate application on day 0), post-injury (delayed 2 weeks post injury) including biopsy time points and time of topical applications. Each group applied both placebo and topical formulations twice daily for the duration of the study until week 8, with only the starting time point differing between groups Participants were split into 4 groups (n=10 in each group) in order to compare different modes (timings) of commencement of the topical application: • Group-1: Pre-emptive Priming (7-days): pre-injury • Group-2: Pre-emptive Priming (3-days): pre-injury • Group-3: Immediate (0-day): day-of-injury • Group-4: Delayed (14-days): post-injury Clinical quantitative devices were used to objectively monitor cutaneous healing at weekly intervals and punch biopsies were performed on day 0 (uninjured skin) and at weeks 4 and 8 for protein and gene expression analyses. In the trial, topical EGCG and a placebo topical were applied twice daily for the duration of the trial until week 8 with only the starting time points differing between groups. […]

SMILES: O=C(OC1Cc2c(O)cc(O)cc2OC1c1cc(O)c(O)c(O)c1)c1cc(O)c(O)c(O)c1 (single isomer, unassigned; (-)) [EGCG, (-)-epigallocatechin-3-gallate]
- mRNA sequencing: HBB, HBA1 and HBA2 expression with EGCG compared to placebo [1]: reduced
- Angiogenic markers in primed uninjured skin ([2]; primed uninjured skin prior to injury): reduces angiogenic markers
- CD31: larger reduction in group 1 compared to group-4 ([2]; week 4, 7-day priming vs delayed, p=0.01): 40%
- CD31 in EGCG-treated samples compared with placebo ([2]; weeks 4 and 8, all groups, p<0.01): significantly down-regulated
- Scar outcome, immediate application to zone of injury compared with delayed application two-weeks post-wounding [3]: reduced scar thickness and angiogenesis, plus increased hydration and elasticity
- QRT-PCR CD31, EGCG-treated samples compared to placebo [4]: significant down regulation
- FLPI blood flow, EGCG arms compared to placebo arms ([5]; group-1 weeks 1 and 8, group-2 weeks 3, 7, 8, group-3 weeks 1-3, 6-8, group-4 weeks 3-8, p<0.01): significant reduction
- FLPI blood flow, between group comparison, groups-1 and 3 vs group-4 ([5]; week 1, p<0.001, p=0.002): reduced blood flow more than group-4
